Series [1] in a line: Toxicity test for single pesticide on zebrafish embryos (96 h semi-static exposure). The format is in vivo, Zebrafish (Danio rerio). The settings on record: zebrafish, in vivo; after 96 hours of exposure; single pesticide; embryos exposed from 3 hpf; read-out: LC50 and 95% confidence limits for zebrafish embryos when used alone. How it is done: (§1) S1: The embryo culture component 3 is assembled; toxicity exposure is performed after 3 hours post-fertilization (3 hpf) of embryos; after collecting the zebrafish embryos for 3 hours, the abnormal and dead embryos are removed, and the normally divided embryos are picked out under an inverted microscope, and the selected embryos are loaded in into the culture well 34 in an amount of 10 embryos per well; after removing the water as much as possible, 10 mL of single pesticide solution with different concentrations are added to each well in the treatment group separately, and an equal volume of standard dilution water is added to the blank control group and the solvent control group, respectively. Three replicates are set for each treatment group, blank control group and solvent control group, and every 2 wells are served as one replicate, that is, 20 embryos are one replicate. Each test pesticide is set with 5 to 7 concentrations using serial dilution method with a geometrical ratio, and each concentration is set with three repeats.
(§2) S2: The semi-static method is used, that is, the medium in the wells are replaced with fresh pesticide solution every 24 hours, and the dead embryos are picked out in time. When the medium is replaced with the fresh pesticide solution, the top plate 32 is pulled up, the original culture medium flows through the leakage hole 35 into the cavity of the cavity plate 31, and then the original culture medium is poured out together. Then, the top plate 32 is mounted on the cavity plate 31, and the fresh pesticide solution is added to the culture well 34 loaded with embryos.
(§3) S3: After 96 hours of toxicity exposure, the embryo mortality and poisoning symptoms are recorded. Embryo death was characterized by egg coagulation, somite disruption, non-detachment of tail or lack of heartbeat; common symptoms of embryo poisoning include the following deformities: egg coagulation, pericardial edema, yolk sac edema, spine curvature, tail bending, and others (FIG. 5). The mortality M is calculated according to the formula (I),
(§4) In formula (I), D is the number of dead embryos and N is the total number of embryos. DPS statistical analysis software (version number: V15.10) is used to statistically analyze the mortality data of zebrafish embryos with the probabilistic value analysis method, and the 50% lethal concentration LC50 and 95% confidence limits of the fish embryos are calculated.

A further series concerns zebrafish embryos. Described as above. The settings on record: single pesticide treatment group; 96 h exposure (tetraconazole: high concentration group). The class given is in vivo, Zebrafish (Danio rerio). How it is done: as §1, §2, §3, §4

Converted amounts (≈) assume the structure as drawn.

As for `FC(F)C(F)(F)OCC(Cn1cncn1)c1ccc(Cl)cc1Cl` (stereo not shown) [tetraconazole], in series [1], the median lethal concentration (LC50) at 96 h was 11 µg/mL (≈ 29.5 µM). Further, the “poisoning symptoms of zebrafish embryos” value in the series with zebrafish embryos is “pericardial edema, yolk sac edema, spine curvature, tail bending, and others were observed”.
`CN1COCN(Cc2cnc(Cl)s2)/C1=N\[N+](=O)[O-]` [thiamethoxam]: the median lethal concentration (LC50) at 96 h in series [1] came out at 246 µg/mL (≈ 844 µM). In addition, the “poisoning symptoms of zebrafish embryos” value with zebrafish embryos was “not obvious”.

The record behind these values is patent US20210299282A1, “Device for Collecting and Culturing Fish Embryos and Method for Evaluating Combined Toxicity of Thiamethoxam and Tetraconazole” (priority 2020, published 2021).
